Assay results as given in ChEMBL document CHEMBL1147038, “Structural basis for the specific inhibition of protein kinase G, a virulence factor of Mycobacterium tuberculosis” (Proc Natl Acad Sci U S A, 2007).
The source made the active and inactive calls. The rule behind the calls is not given here.

Assays:
[1] = system: J774; assay: Effect on Phorbol 12-myristate 13-acetate-induced membrane ruffling in mouse J774 macrophage cells at 20 uM by video microscopy; format: functional, cell-based
[2] = system: J774; assay: Effect on Phorbol 12-myristate 13-acetate-induced macropinocytosis in mouse J774 macrophage cells at 20 uM by video microscopy; format: functional, cell-based
[3] = system: J774; assay: Effect on Phorbol 12-myristate 13-acetate-induced cellular morphology in mouse J774 macrophage cells at 20 uM by video microscopy; format: functional, cell-based
[4] = biological target: Serine/threonine-protein kinase PknG (Mycobacterium tuberculosis) (UniProt P9WI73); assay: Inhibition of Mycobacterium tuberculosis Protein kinase G by radiometric ATP consumptive assay
Sequence of Serine/threonine-protein kinase PknG (Mycobacterium tuberculosis) (P9WI73 whole entry): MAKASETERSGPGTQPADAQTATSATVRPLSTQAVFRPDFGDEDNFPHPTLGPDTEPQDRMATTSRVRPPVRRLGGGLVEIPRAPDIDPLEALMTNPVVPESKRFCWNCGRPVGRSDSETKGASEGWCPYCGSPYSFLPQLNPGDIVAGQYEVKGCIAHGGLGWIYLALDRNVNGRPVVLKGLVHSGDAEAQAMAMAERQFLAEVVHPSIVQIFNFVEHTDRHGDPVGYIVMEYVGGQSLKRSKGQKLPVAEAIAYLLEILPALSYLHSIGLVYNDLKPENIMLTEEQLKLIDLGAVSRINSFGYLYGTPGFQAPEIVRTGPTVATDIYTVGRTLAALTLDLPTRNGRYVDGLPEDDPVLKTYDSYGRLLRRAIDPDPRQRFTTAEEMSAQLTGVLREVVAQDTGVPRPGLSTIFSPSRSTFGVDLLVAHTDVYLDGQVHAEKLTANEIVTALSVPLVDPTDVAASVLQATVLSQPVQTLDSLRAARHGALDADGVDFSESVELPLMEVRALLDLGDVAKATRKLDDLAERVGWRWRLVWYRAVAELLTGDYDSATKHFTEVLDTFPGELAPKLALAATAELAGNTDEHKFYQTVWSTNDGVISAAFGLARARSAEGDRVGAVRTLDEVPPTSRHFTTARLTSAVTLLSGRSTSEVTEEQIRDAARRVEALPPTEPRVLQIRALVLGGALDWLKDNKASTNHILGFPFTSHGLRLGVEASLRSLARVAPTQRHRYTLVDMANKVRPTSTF

SMILES: NC(=O)c1c(NC(=O)C2CC2)sc2c1CCCC2
- Activity [1]: inactive
- Activity [2]: inactive
- Activity [3]: inactive
- Activity [4]: Active
